Experimental data: the NIST ThermoML archive (doi:10.1016/j.jct.2008.04.008)

Assay: mn = molality of the nth substance listed, in mol/kg
Conditions: Liquid; for speed of sound: Pulse-echo method

[Na+].c1ccc([B-](c2ccccc2)(c2ccccc2)c2ccccc2)cc1 [sodium tetraphenylboron] + CO
Conditions	mass density, 283.15 K [kg/m3]	mass density, 288.15 K [kg/m3]	mass density, 293.15 K [kg/m3]	mass density, 298.15 K [kg/m3]	mass density, 303.15 K [kg/m3]	mass density, 308.15 K [kg/m3]	mass density, 313.15 K [kg/m3]	speed of sound, 298.15 K [m/s]
m1 = 0.02864	803.855	799.183	794.505	789.813	785.107	780.377	775.618	–
m1 = 0.03742	804.851	800.185	795.511	790.825	786.118	781.392	776.646	–
m1 = 0.04715	805.936	801.274	796.607	791.928	787.23	782.507	–	–
m1 = 0.05653	806.979	802.323	797.659	792.985	788.298	783.585	778.847	–
m1 = 0.06567	807.991	803.338	798.679	794.015	789.33	784.622	779.888	1114.1
m1 = 0.07566	809.099	804.455	799.8	795.14	790.46	785.759	781.031	1115.7
m1 = 0.09526	811.246	806.611	801.967	797.318	792.652	787.962	783.246	1119
m1 = 0.1146	813.35	808.726	804.095	799.453	794.791	790.107	785.409	1122.4
m1 = 0.1339	815.434	810.82	806.2	801.569	796.921	792.253	787.56	1125.7
m1 = 0.1529	817.425	812.819	808.212	803.59	798.952	794.294	789.61	1128.3
m1 = 0.173	819.579	814.984	810.383	805.772	801.145	796.5	791.829	1131.7
m1 = 0.1931	821.677	817.092	812.503	807.899	803.28	798.648	793.987	1135.5
